In patent US20230331685A1, “HERBICIDAL COMPOUNDS AND METHODS OF USE THEREOF” (AG Plenus Ltd, priority 2020, published 2023):

Experiments:
Assay type in all cases: in vivo
[1] = tested on: Arabidopsis thaliana; experiment: HTPS pre-emergence application on dicot model plant; details: for Max Inhibition (%): green area (RGB); for ED50 (g/ha): dose-response of normalized green area
Procedure: The plates were placed in a controlled greenhouse in a random order inside a bath which allows flooding irrigation with tap water supplemented with a fertilizer. Applied compounds were dissolved into a final solution of 50% acetone, 49.9% DDW, 0.1% tween-20. A 96 well plate was used as a stock plate for preparing application solutions for 8 repeats. Each row contained different concentrations per chemical. Maximal concentration for application was 1.5 Kg/Ha and dilution factor is 2.5. Chemical application was performed one day after thinning out in a chemical hood. […] applied on first two true leaves in each well using 12 channel pipettes. Data collection: RGB (red, green, blue) data for green area per well was documented using camera. Data is collected at a few time points during the experiment: one day after thinning and before chemical application, two-, six- or nine-days post application. During the last two documentations, visual phenotyping was performed. Data analysis: Given RGB results and visual phenotype scores, a student t-test conducted to compare between treatment and control performance for continuous data (RGB) and Fisher exact test to analyze the non-continuous data (phenotypic scores). Dose-Response curves are generated for each treatment to infer ED50 and max. inhibition parameters, using treatment's log concentration range as the […] and normalized green area. […] Plate imaging performed at 11 and 18 DAA. RGB data for green area per well was documented and used to extract % inhibition. Dose-Response curves were built for each treatment to infer EC50, EC75 and EC90 parameters, using treatment's log concentration range as the independent variable and normalized green area as the dependent variable. Treatments were compared to controls performance given RGB results and using student's t-test (p-val≤0.05). Compounds 104-154 were applied in either or both pre- and post-emergence mode to either or both monocot and dicot model plants, following the methods described above. The compounds were applied as a gradient of concentrations as listed above, from which the ED50 was calculated.

[2] = tested on: Arabidopsis thaliana; experiment: HTPS post-emergence application on miniature dicot model plant; details: for Emax: Arabidopsis thaliana, post-emergence, green area (RGB), read-out: Max Inhibition (%); for ED50 (g/ha): dose-response of normalized green area
Procedure: The plates were placed in a controlled greenhouse in a random order inside a bath which allows flooding irrigation with tap water supplemented with a fertilizer. Applied compounds were dissolved into a final solution of 50% acetone, 49.9% DDW, 0.1% tween-20. A 96 well plate was used as a stock plate for preparing application solutions for 8 repeats. Each row contained different concentrations per chemical. Maximal concentration for application was 1.5 Kg/Ha and dilution factor is 2.5. Chemical application was performed one day after thinning out in a chemical hood. […] applied on first two true leaves in each well using 12 channel pipettes. Data collection: RGB (red, green, blue) data for green area per well was documented using camera. Data is collected at a few time points during the experiment: one day after thinning and before chemical application, two-, six- or nine-days post application. During the last two documentations, visual phenotyping was performed. Data analysis: Given RGB results and visual phenotype scores, a student t-test conducted to compare between treatment and control performance for continuous data (RGB) and Fisher exact test to analyze the non-continuous data (phenotypic scores). Dose-Response curves are generated for each treatment to infer ED50 and max. inhibition parameters, using treatment's log concentration range as the […] variable and normalized green area. Plate imaging performed at 11 and 18 DAA. RGB data for green area per well was documented and used to extract % inhibition. Dose-Response curves were built for each treatment to infer EC50, EC75 and EC90 parameters, using treatment's log concentration range as the independent variable and normalized green area as the dependent variable. Treatments were compared to controls performance given RGB results and using student's t-test (p-val≤0.05). Compounds 104-154 were applied in either or both pre- and post-emergence mode to either or both monocot and dicot model plants, following the methods described above. The compounds were applied as a gradient of concentrations as listed above, from which the ED50 was calculated.

[3] = tested on: Abutilon theophrasti; experiment: LTP post-emergence greenhouse test; details: Dosage 2000 g/ha
[4] = tested on: Alopecurus myosuroides; experiment: LTP post-emergence greenhouse test; details: Dosage 2000 g/ha
[5] = tested on: monocot and eudicot weeds species; experiment: In-planta LTP weed panel, overall assessment; details: for growth inhibition (in words): dicot species, either pre- or post-emergence applications
[6] = tested on: Amaranthus palmeri; experiment: LTP post-emergence greenhouse test; details: Dosage 2000 g/ha
[7] = tested on: Lolium perenne; experiment: LTP post-emergence greenhouse test; details: Dosage 2000 g/ha
[8] = tested on: Poa annua; experiment: LTP post-emergence greenhouse test; details: Dosage 2000 g/ha
[9] = tested on: Setaria viridis; experiment: LTP post-emergence greenhouse test; details: Dosage 2000 g/ha
[10] = tested on: Ambrosia artemisiifolia; experiment: LTP post-emergence greenhouse test; details: Dosage 2000 g/ha
[11] = tested on: Lolium perenne; experiment: LTP pre-emergence greenhouse test; details: Dosage 2000 g/ha
Procedure: (§1) A basic panel of 8 weed species (Table 3) were sowed in 4×4×7 cm plastic pots containing inert sand (Sweet sand), intensively washed using osmosis water. Each specie was sowed in a separate pot. In each pot 10-15 seeds were sowed according to the specie viability. Sowing was performed one day before application. The plants were grown for 21 days in a controlled greenhouse (26±2° C. day 20±2° C. night). Hood irrigation (tap water+Shefer 5:3:8 8 mM) was given at a 50% water content by weight. Compounds were soluble in water (DDW), and commercial herbicide control was soluble in formulation B (Table 4). Application was conducted with an industrial sprayer (TeeJet 6502E nozzle) at a rate of 2 kg/ha and spray volume of […]. Pre-emergence advanced dose response experiment application was conducted at six rates between 1-0.0312 kg/ha and spray volume of […]. Percentage of emergence was evaluated at 15 DAA. Visual phenotyping was recorded using a scale of 0-6 (0: no visible effect, 6: maximum effect) at 18 DAA. All experiments included an untreated control, a solvent control and a positive control (commercial herbicide A.I.). […] Statistical analysis for plant emergence determined by % emergence ≥50 and T test (pval≤0.05), as well as Wilcox test (pval≤0.05).

[12] = tested on: Matricaria chamomilla; experiment: LTP pre-emergence greenhouse test; details: Dosage 2000 g/ha
Procedure: as §1

[13] = tested on: Setaria viridis; experiment: LTP pre-emergence greenhouse test; details: Dosage 2000 g/ha
Procedure: as §1

[14] = tested on: Amaranthus palmeri; experiment: LTP pre-emergence greenhouse test; details: Dosage 2000 g/ha
Procedure: as §1

[15] = tested on: Poa annua; experiment: LTP pre-emergence greenhouse test; details: Dosage 2000 g/ha
Procedure: as §1

[16] = tested on: Alopecurus myosuroides; experiment: LTP pre-emergence greenhouse test; details: Dosage 2000 g/ha
Procedure: as §1

[17] = tested on: Abutilon theophrasti; experiment: LTP pre-emergence greenhouse test; details: Dosage 2000 g/ha
Procedure: as §1

[18] = tested on: Ambrosia artemisiifolia; experiment: LTP pre-emergence greenhouse test; details: Dosage 2000 g/ha
Procedure: as §1

[19] = tested on: Matricaria chamomilla; experiment: LTP post-emergence greenhouse test; details: Dosage 2000 g/ha
[20] = tested on: monocot and dicot model plants; experiment: In-planta HTPS, overall assessment; details: on monocots
Procedure: The plates were placed in a controlled greenhouse in a random order inside a bath which allows flooding irrigation with tap water supplemented with a fertilizer. Applied compounds were dissolved into a final solution of 50% acetone, 49.9% DDW, 0.1% tween-20. A 96 well plate was used as a stock plate for preparing application solutions for 8 repeats. Each row contained different concentrations per chemical. Maximal concentration for application was 1.5 Kg/Ha and dilution factor is 2.5. Chemical application was performed one day after thinning out in a chemical hood. […] applied on first two true leaves in each well using 12 channel pipettes. Data collection: RGB (red, green, blue) data for green area per well was documented using camera. Data is collected at a few time points during the experiment: one day after thinning and before chemical application, two-, six- or nine-days post application. During the last two documentations, visual phenotyping was performed. Data analysis: Given RGB results and visual phenotype scores, a student t-test conducted to compare between treatment and control performance for continuous data (RGB) and Fisher exact test to analyze the non-continuous data (phenotypic scores). […] The compounds were applied as a gradient of concentrations as listed above, from which the ED50 was calculated.

## COC(=O)CCSC1CCCC1N (centres unmarked) [Compound 147]
[1]
  Max Inhibition (%): 100%
[2]
  Emax: 50%
  ED50 (g/ha): 807 g/ha

## CC(O)C(N)CCCCC(=O)NS(=O)(=O)CC1CCCC1 (centres unmarked) [Compound 101]
[2]
  Emax: 100%
  ED50 (g/ha): 29 g/ha

## CC(C)(C)C(N)c1cccc(C(=O)O)c1 (centres unmarked) [Compound 109]
[3]
  Herbicidal activity (In-planta), LTP-Post emergence, Abutilon theophrasti: 0
[4]
  Herbicidal activity (In-planta), LTP-Post emergence, Alopecurus myosuroides: 0
[1]
  ED50 (g/ha): 24 g/ha
[5]
  growth inhibition (in words): moderate growth inhibition
[6]
  Herbicidal activity (In-planta), LTP-Post emergence, Amaranthus palmeri: 40
[7]
  Herbicidal activity (In-planta), LTP-Post emergence, Lolium perenne: 0
[8]
  Herbicidal activity (In-planta), LTP-Post emergence, Poa annua: 0
[9]
  Herbicidal activity (In-planta), LTP-Post emergence, Setaria viridis: 0
[10]
  Herbicidal activity (In-planta), LTP-Post emergence, Ambrosia artemisiifolia: 40
[2]
  Emax: 100%
  ED50 (g/ha): 200 g/ha
[11]
  Herbicidal activity (In-planta), LTP-Pre emergence, Lolium perenne: 0
[12]
  Herbicidal activity (In-planta), LTP-Pre emergence, Matricaria chamomilla: 0
[13]
  Herbicidal activity (In-planta), LTP-Pre emergence, Setaria viridis: 0
[14]
  Herbicidal activity (In-planta), LTP-Pre emergence, Amaranthus palmeri: 40
[15]
  Herbicidal activity (In-planta), LTP-Pre emergence, Poa annua: 0
[16]
  Herbicidal activity (In-planta), LTP-Pre emergence, Alopecurus myosuroides: 0
[17]
  Herbicidal activity (In-planta), LTP-Pre emergence, Abutilon theophrasti: 0
[18]
  Herbicidal activity (In-planta), LTP-Pre emergence, Ambrosia artemisiifolia: 0
[19]
  Herbicidal activity (In-planta), LTP-Post emergence, Matricaria chamomilla: 0

## CCC(C)C(N)c1cccc(C(=O)O)c1 (centres unmarked) [Compound 108]
[1]
  ED50 (g/ha): 175 g/ha
  Max Inhibition (%): 100%

## CC(N)CCCCC(=O)O (centres unmarked) [Compound 107]
[2]
  Emax: 100%
  ED50 (g/ha): 200 g/ha

## O=C(O)CCCCC1CCCN1 (centres unmarked) [Compound 148]
[5]; dicots and monocots, applied pre-emergence
  activity (in words): good to moderate activity
[2]
  Emax: 100%
  ED50 (g/ha): 30 g/ha
[11]
  Herbicidal activity (In-planta), LTP-Pre emergence, Lolium perenne: 0
[12]
  Herbicidal activity (In-planta), LTP-Pre emergence, Matricaria chamomilla: 60-80
[13]
  Herbicidal activity (In-planta), LTP-Pre emergence, Setaria viridis: 40
[14]
  Herbicidal activity (In-planta), LTP-Pre emergence, Amaranthus palmeri: 60-80
[15]
  Herbicidal activity (In-planta), LTP-Pre emergence, Poa annua: 60-80
[16]
  Herbicidal activity (In-planta), LTP-Pre emergence, Alopecurus myosuroides: 0
[17]
  Herbicidal activity (In-planta), LTP-Pre emergence, Abutilon theophrasti: 40-60
[18]
  Herbicidal activity (In-planta), LTP-Pre emergence, Ambrosia artemisiifolia: 60

## COC(=O)CN(C)C(=O)CCCCC(N)C(C)O (centres unmarked) [Compound 102]
[2]
  Emax: 90%
  ED50 (g/ha): 2 g/ha

## O=C(O)CCCCC1CCNC1 (centres unmarked) [Compound 123]
[2]
  Emax: 100%
  ED50 (g/ha): 140 g/ha

## O=C(O)CCCC1CCCNC1 (centres unmarked) [Compound 154]
[2]
  Emax: 100%
  ED50 (g/ha): 8 g/ha

## COC(=O)CCCSC1CCCC1N (centres unmarked) [Compound 146]
[5]
  growth inhibition (in words): moderate growth inhibition
[2]
  Emax: 100%
  ED50 (g/ha): 80 g/ha
[11]
  Herbicidal activity (In-planta), LTP-Pre emergence, Lolium perenne: 40
[12]
  Herbicidal activity (In-planta), LTP-Pre emergence, Matricaria chamomilla: 0
[13]
  Herbicidal activity (In-planta), LTP-Pre emergence, Setaria viridis: 60
[14]
  Herbicidal activity (In-planta), LTP-Pre emergence, Amaranthus palmeri: 60-80
[15]
  Herbicidal activity (In-planta), LTP-Pre emergence, Poa annua: 0
[16]
  Herbicidal activity (In-planta), LTP-Pre emergence, Alopecurus myosuroides: 0
[17]
  Herbicidal activity (In-planta), LTP-Pre emergence, Abutilon theophrasti: 0
[18]
  Herbicidal activity (In-planta), LTP-Pre emergence, Ambrosia artemisiifolia: 0

## CCC(O)C(N)CCCCC(=O)O (centres unmarked) [Compound 113]
[2]
  Emax: 100%
  ED50 (g/ha): 26 g/ha

## C[C@H](O)[C@@H](N)CCCCC(=O)O [Compound 114]
[2]
  Emax: 100%
  ED50 (g/ha): 40 g/ha

## CCC(N)CCCCC(=O)O (centres unmarked) [Compound 149]
[20]
  activity (in words): very good activity
[2]
  Emax: 100%
  ED50 (g/ha): 90 g/ha

## C[C@@H]1OC(=O)N[C@@H]1CCCCC(=O)O [Compound 106, 5-((4R,5S)-5-methyl-2-oxooxazolidin-4-yl)pentanoic acid]
[2]
  Emax: 82%
  ED50 (g/ha): >1000 g/ha

## C[C@@H](O)[C@H](N)CCCCC(=O)O [Compound 115]
[2]
  Emax: 100%
  ED50 (g/ha): 13 g/ha

## NC1CCCCC1CCCC(=O)O (centres unmarked) [Compound 152]
[2]
  Emax: 100%
  ED50 (g/ha): 4 g/ha

## C[C@H]1OC(=O)N[C@H]1CCCCC(=O)O [Compound 105, 5-((4S,5R)-5-methyl-2-oxooxazolidin-4-yl)pentanoic acid]
[2]
  Emax: 94%
  ED50 (g/ha): 430 g/ha

## NC1CCC(CCCC(=O)O)C1 (centres unmarked) [Compound 143]
[2]
  Emax: 100%
  ED50 (g/ha): 61 g/ha
